Here are results for 14 molecules from ChEMBL document CHEMBL1128770, “Amino azoles and azolo-azines as potential hepatoprotectants: Part III” (1995).

Assay type in all cases: functional
Assay [1] deals with Rattus norvegicus. Put plainly: Hepatoprotective activity against thioacetamide(200 mg/kg, sc) induced toxicity in rat at 6 mg/kg dose(po x 7 days), expressed as %protection afforded in various levels of glutamate oxaloacetate transaminase (GOT).
Assay [2] relates to Rattus norvegicus. Put plainly: Hepatoprotective activity against thioacetamide (200 mg/kg, sc) induced toxicity in rat at 6 mg/kg dose (po x 7 days), expressed as %protection afforded in various levels of alkaline phosphatase (ALP).
For assay [3], the system named is Rattus norvegicus. As to the kind of experiment: Hepatoprotective activity against thioacetamide(200 mg/kg, sc) induced toxicity in rat at 6 mg/kg dose(po x 7 days), expressed as %protection afforded in various levels of glutamate pyruvate transaminase (GPT).
Assay [4] deals with Rattus norvegicus. As to the kind of experiment: Hepatoprotective activity against thioacetamide (200 mg/kg, sc) induced toxicity in rat at 6 mg/kg dose (po x 7 days), expressed as %protection afforded in various levels of bilirubin.

Consider `Nc1nc(N)nc(Cc2cc(-c3ccc(F)cc3)[nH]n2)n1`, for which the “GOT Level” value in the assay on Rattus norvegicus [1] worked out at 121.6 U l-1. In addition, in the assay on Rattus norvegicus [2], the “ALP Level” value was 203.2 U l-1. Further, in the assay with Rattus norvegicus [3], the “GPT Level” value is on record as 129 U l-1. For the same molecule, the “Bilurubin Level” value with Rattus norvegicus [4] amounted to 0.807 mg %.
Consider `COc1ccc(Cc2c(N)noc2N)cc1`, for which the “GOT Level” value with Rattus norvegicus [1] is 99.9 U l-1. The “ALP Level” value with Rattus norvegicus [2] stood at 215.9 U l-1. Moreover, the “GPT Level” value with Rattus norvegicus [3] stood at 87.4 U l-1. In addition, the “Bilurubin Level” value with Rattus norvegicus [4] is on record as 0.745 mg %.
As to `COc1ccc(Cc2c(N)n[nH]c2N)cc1`, the “GOT Level” value in the assay on Rattus norvegicus [1] came to 70.4 U l-1. The “ALP Level” value with Rattus norvegicus [2] was found to be 187 U l-1. Further, the “GPT Level” value in the assay on Rattus norvegicus [3] stood at 85.5 U l-1. Besides, the “Bilurubin Level” value in the assay on Rattus norvegicus [4] was determined as 0.619 mg %.
Consider `Cc1ccc(-c2cc(Cc3nnc(N)s3)n(-c3ccccc3)n2)cc1`, for which the “GOT Level” value in the assay with Rattus norvegicus [1] came to 65.2 U l-1. Also, the “ALP Level” value in the assay on Rattus norvegicus [2] is reported as 196 U l-1. The “GPT Level” value in the assay on Rattus norvegicus [3] is reported as 87.5 U l-1. In the assay on Rattus norvegicus [4], the “Bilurubin Level” value came out at 0.575 mg %.
The matching figures for `Nc1noc(N)c1Cc1ccc(Cl)cc1`: 106 U l-1, 201 U l-1, 112.5 U l-1 and 0.735 mg %.
With `Nc1n[nH]c(N)c1Cc1ccc(Cl)cc1`, the “GOT Level” value with Rattus norvegicus [1] is 97.5 U l-1. For the same molecule, the “ALP Level” value with Rattus norvegicus [2] was determined as 205.3 U l-1. The “GPT Level” value in the assay on Rattus norvegicus [3] was determined as 136.2 U l-1. Besides, the “Bilurubin Level” value with Rattus norvegicus [4] amounted to 0.757 mg %.
The matching figures for `CC(=O)Nc1[nH]nc(N)c1Cc1ccc(Cl)cc1`: 96.7 U l-1, 204 U l-1, 146 U l-1 and 0.693 mg %.
With `Nc1noc(N)c1Cc1ccc2c(c1)OCO2`, the “GOT Level” value with Rattus norvegicus [1] is on record as 101.5 U l-1. The “ALP Level” value with Rattus norvegicus [2] is 205.8 U l-1. The “GPT Level” value with Rattus norvegicus [3] was found to be 109.3 U l-1. Further, in the assay with Rattus norvegicus [4], the “Bilurubin Level” value stood at 0.69 mg %.
The matching figures for `CC(=N)S` [THIOACETAMIDE]: 128 U l-1, 218.9 U l-1, 171.5 U l-1 and 0.829 mg %.
Taken in the same sequence, the figures for `CN(C)c1ccc(Cc2c(N)n[nH]c2N)cc1` were 67.1 U l-1, 187.1 U l-1, 93.8 U l-1 and 0.568 mg %.
The matching figures for SILYMARIN: 84.5 U l-1, 199 U l-1, 110 U l-1 and 0.617 mg %.
For `CN(C)c1ccc(Cc2c(N)noc2N)cc1`, the “GOT Level” value in the assay with Rattus norvegicus [1] amounted to 114 U l-1. Moreover, the “ALP Level” value in the assay with Rattus norvegicus [2] is given as 206.6 U l-1. Moreover, the “GPT Level” value with Rattus norvegicus [3] is 146.2 U l-1. For the same molecule, the “Bilurubin Level” value in the assay with Rattus norvegicus [4] came to 0.786 mg %.
The matching figures for `Nc1n[nH]c(N)c1Cc1ccc2c(c1)OCO2`: 75.6 U l-1, 196.9 U l-1, 99.2 U l-1 and 0.758 mg %.
The matching figures for `Nc1nc(N)nc(Cc2cc(-c3ccc(Cl)cc3)[nH]n2)n1`: 119 U l-1, 190.5 U l-1, 148.5 U l-1 and 0.748 mg %.
